In patent US7879792B2, “Synthetic peptide inhibitors of thrombin and thrombin activation of protease activated receptors 1 and 4” (The Regents of the University of Michigan, priority 2005, dated 2011):
Where a SMILES comes first, the peptide text is derived from it.

Columns and labels:
[1] = rat intestinal in situ perfusion permeability; assay type: in vivo
Procedure: To determine the intestinal permeability of the various peptide analogs, male albino Sprague-Dawley rats, 9-10 weeks old and weighing 250-350 g were fasted for 18 hours with free access to water. The rats were anesthetized with an intramuscular injection of ketamine/xylazine/butorphanol (87 mg/kg, 6 mg/kg, and 0.2 mg/kg body weight, respectively). The abdomen was opened by a 4-5 cm midline incision and a 10 cm jejunal segment was cannulated on two ends and connected to a syringe pump that pumps the perfusing solution through the cannulated intestine at a constant rate and at a temperature of 37° C. The isolated segment was rinsed with 10 mM MES (pH 6.5) at a flow-rate of 0.5 ml/min in order to clean out any residual debris. Jejunal perfusion was subsequently performed with the same buffer containing 135 mM NaCl, 5 mM KCl and 0.01% PEG 4000 at a flow rate of 0.2 ml/min containing test compound, internal permeability reference standards (e.g., metoprolol) and ^14C-PEG 4000 as a non-absorbable marker for measuring water flux. After steady-state is reached within the perfused intestinal segment, typically 30 minutes after start of perfusion, samples were taken at 10 minute intervals for 1 hour. ^14C (PEG-4000) levels are assayed by scintillation counting and test compounds and internal permeability standard analysis by LC/MS/MS. Samples are frozen and stored at −80° C. until analysis.
The effective permeability (Peff) determined from the in situ perfusion is calculated from equation 1
[formula] where Q is the perfusion buffer flow rate, C′out is the outlet concentration of the compound that has been adjusted for water transport (equation 2) after passing through the intestinal segment, C′in is the inlet or starting concentration of the compound, R is the radius of the intestinal segment (set to 0.2 cm) and L is the length of the intestinal segment. To correct for water transport, a non-absorbed radioactive tracer, ^14C PEG-4000, is included in the perfusion buffer. The Cout/Cin ratio is corrected for water transport according to equation 2:
[formula] where Aout-A0 is equal to the radioactivity counts in the outlet sample minus background (dpm) and Ain-A0 is equal to the radioactivity counts in the inlet sample minus background (dpm).
In certain instances, in addition to perfusing the intestinal segment as described, plasma is drawn through a portal vein cannula to determine the amount of material entering the portal system during the perfusion. This additional experimental step can aid in determining the true intestinal permeability of unstable compounds. After steady state conditions are reached as described above, 0.5 ml aliquots of plasma are withdrawn from the portal vein at regular intervals throughout the experimental time frame. The plasma samples are deproteinated with acetonitrile and the sample is subjected to SPE and LC/MS analysis as described above. From the plasma concentration of compound, the mesenteric permeability can be determined by substitution into equation 3: Flux=A*Pe-mes*Ci 3) where Flux is equal to the portal blood flow (estimated at 1 ml/min in the rat)×the steady state mesenteric blood concentration of the peptide analogs, A is the absorptive area of the intestine (estimated at 12.56 cm^2 in the rat intestine), Pe-mes is the mesenteric Permeability (cm/sec), and Ci is the starting concentration of drug in the perfusate (ug/ml).

[2] = tested on: normal human citrated plasma; test: prothrombin time (PT); assay type: biochemical
Procedure: The influence of the various peptide formulations used in the present invention on established coagulation-based assays was determined. The activated partial thromboplastin time (APTT) is performed by mixing 0.05 ml normal human citrated plasma with 0.05 ml activated partial thromboplastin reagent purchased from Organon Teknika, Research Triangle Park, NC in the absence or presence of a peptide inhibitor. After incubation for 5 min at 37° C., the mixture is recalcified with 0.05 ml of 30 mM calcium chloride and the time to clot formation is measured in an Amelung KC4A instrument (Sigma Chemical Corp, St. Louis, Mo.) (Hasan et al. Thrombosis and Haemostasis. 82, 1182-1187 (1999)). The prothrombin time (PT) is performed by mixing 0.05 ml normal human citrated plasma with 0.05 ml Simplastin (Organon Teknika, Research Triangle Park, NC) followed by incubation for 3 min at 37° C. in the absence or presence of a peptide inhibitor. At the addition of 0.05 ml of 30 mM calcium chloride, the time to clot formation is measured in an KC4A instrument (Sigma Chemical Corp, St. Louis, Mo.) (Hasan et al. Thrombosis and Haemostasis. 82, 1182-1187 (1999)). The thrombin clotting time (TCT) is performed by adding 0.1 ml normal human citrated plasma in the absence or presence of a peptide inhibitor and 0.05 ml of a α-thrombin solution such that the final concentration of the thrombin in the entire mixture was 1 nM. Upon addition of the thrombin, the time to clot formation is measured in an KC4A instrument (Sigma Chemical Corp, St. Louis, Mo.).

| Permeability (in situ) (cm/sec) ([1]; rat jejunal in situ perfusion) | Papp ([1]; rat, from portal vein plasma during perfusion, read-out: Permeability (mesenteric)) [×10⁻⁶ cm/s] | SMILES | peptide concentration with significant prolongation (p<0.05) of the PT [2] [µM] |
| --- | --- | --- | --- |
| Degraded | 0.451 | N=C(N)NCCC[C@@H](N)C(=O)N1[C@H](C(=O)N2CCC[C@H]2C(=O)NCC(=O)N[C@@H](Cc2ccccc2)C(N)=O)C[C@@H]2CCCC[C@@H]21 [rOicPGF, D-Arg-Oic-Pro-Gly-Phe, reference compound] (HELM PEPTIDE1{[dR].[O=C([C@@H]1C[C@@H]2CCCC[C@@H]2N1[*:1])[*:2]].P.G.F.[am]}$$$$V2.0) |  |
|  |  | Cc1ccc(C[C@H](NC(=O)[C@@H](C)NC(=O)[C@@H]2CCCN2C(=O)[C@@H]2C[C@@H]3CCCC[C@@H]3N2C(=O)[C@H](N)CCCNC(=N)N)C(N)=O)cc1 [rOicPaF(p-Me), D-Arg-Oic-Pro-D-Ala-Phe(p-Me)] (HELM PEPTIDE1{[dR].[O=C([C@@H]1C[C@@H]2CCCC[C@@H]2N1[*:1])[*:2]].P.[dA].[Cc1ccc(C[C@H](N[*:1])C(=O)[*:2])cc1].[am]}$$$$V2.0) | 1.56 |
